Here are results for 10 compounds from patent US20030191279A1, “Urea derivatives useful as anticancer agents” (priority 1999, published 2003).

The structures appear in SMILES notation.

As usually defined, the melting point is the temperature, or range, at which the solid turns liquid.

Consider `O=C(NCC(=O)N(Cc1ccccc1)[C@@H]1c2ccccc2CC[C@H]1Cc1ccccc1)Nc1cccc(C(=O)O)c1` (relative stereo) [Example 1, trans-3-(3-{[Benzyl-(2-benzyl-1,2,3,4-tetrahydro-naphthalen-1-yl)-carbamoyl]-methyl}-ureido)-benzoic acid], for which the melting point is above 250 °C.
Regarding `O=C(NCC(=O)N(Cc1ccccc1)[C@@H]1c2ccccc2CC[C@H]1Cc1ccccc1)Nc1cccc(C(=O)Nc2nnn[nH]2)c1` (relative stereo) [Example 3, trans-3-(3-{[Benzyl-(2-benzyl-1,2,3,4-tetrahydro-naphthalen-1-yl)-carbamoyl]-methyl}-ureido)-N-(1H-tetrazol-5-yl)-benzamide], the melting point is 155 °C (dec.).
Next, `O=C(NCC(=O)N(Cc1ccccc1)[C@@H]1c2ccccc2CC[C@H]1Cc1ccccc1)c1cccc(-c2nnn[nH]2)c1` (relative stereo) [Example 4, trans-N-{[Benzyl-(2-benzyl-1,2,3,4-tetrahydro-naphthalen-1-yl)-carbamoyl]-methyl}-3-(1H-tetrazol-5-yl)-benzamide]: 119 °C (dec.); `COc1ccccc1CN(C(=O)CNC(=O)Nc1cccc(C(=O)O)c1)[C@@H]1c2ccccc2CC[C@H]1Cc1ccccc1` (relative stereo) [Example 11, trans-3-(3-{[(2-Benzyl-1,2,3,4-tetrahydro-naphthalen-1-yl)-(2-methoxy-benzyl)-carbamoyl]-methyl}-ureido)-benzoic acid]: 117 °C; `O=C(NCC(=O)N(Cc1cccs1)[C@@H]1c2ccccc2CC[C@H]1Cc1ccccc1)Nc1cccc(C(=O)O)c1` (relative stereo) [Example 13, trans-3-(3-{[(2-Benzyl-1,2,3,4-tetrahydro-naphthalen-1-yl)-thiophen-2-ylmethyl-carbamoyl]-methyl}-ureido)-benzoic acid]: 196 to 198 °C.
With `O=C(NCC(=O)N(Cc1ccccc1)[C@@H]1CCCC[C@H]1Cc1ccccc1)Nc1cccc(C(=O)O)c1` (relative stereo) [Example 14, trans-3-(3-{[Benzyl-(2-benzyl-cyclohexyl)-carbamoyl]-methyl)-ureido)-benzoic Acid], the melting point lay in the range of 160 to 162 °C.
Next, `CCN(C(=O)CNC(=O)Nc1cccc(C(=O)O)c1)[C@@H]1c2ccccc2CC[C@H]1Cc1ccccc1` (relative stereo) [Example 16, trans-3-(3-{[(2-Benzyl-1,2,3,4-tetrahydro-naphthalen-1yl)-ethyl-carbamoyl]-methyl}-ureido)-benzoic acid]: 130 °C; `O=C(NCC(=O)N(Cc1nccs1)[C@@H]1c2ccccc2CC[C@H]1Cc1ccccc1)Nc1cccc(C(=O)O)c1` (relative stereo) [Example 17, trans-3-(3-{[(2-Benzyl-1,2,3,4-tetrahydro-naphthalen-1-yl)-thiazol-2-ylmethyl-carbamoyl]-methyl}-ureido)-benzoic acid]: 194 to 195 °C; `COc1ccccc1C[C@@H]1CCc2ccccc2[C@H]1N(Cc1ccccc1)C(=O)CNC(=O)Nc1cccc(C(=O)O)c1` (relative stereo) [Example 18, trans-3-[3-({Benzyl-[2-(2-methoxy-benzyl)-1,2,3,4-tetrahydro-naphthalen-1-yl]-carbamoyl}-methyl)-ureido]-benzoic acid]: 130 °C.
The compound `O=C(O)c1cc(C(=O)NCC(=O)N(Cc2ccccc2)[C@@H]2CCCC[C@H]2Cc2ccccc2)ncn1` (relative stereo) [Example 20, trans-6-({[Benzyl-(2-benzyl-cyclohexyl)-carbamoyl]-methyl}-carbamoyl)-pyrimidine-4-carboxylic acid] yielded a melting point of 120 °C.
